Patent US20250134862A1, “PROCESS FOR TREATING LIVESTOCK EXPOSED TO TOXIC FORAGE USING MELATONIN COMPOSITIONS” (BOARD OF TRUSTEES OF THE UNIVERSITY OF ARKANSAS, priority 2022, published 2025)

Legend:
[1] = test system: pregnant beef cattle grazing toxic, endophyte-infected (E+) tall fescue; assay: Example 2: plasma prolactin by radioimmunoassay on d 70 of the treatment period; format: in vivo; settings: cows on E+ fescue with melatonin 100 μg/kg BW, d 70 of treatment
Source text: (§1) Multiparous crossbred cows were artificially inseminated with sex-sorted semen (Y chromosome-bearing sperm) from a single Angus sire and maintained on pastures free from E+ fescue prior to the start of the treatment period. Pregnant cows […] were assigned to one of three treatment groups based on body weight, with two replications per treatment: non-toxic, novel endophyte-infected (NE+) fescue without melatonin supplementation (NE+/NM; […]), E+ fescue with melatonin supplementation (E+/M; n=16), and E+ fescue without melatonin supplementation (E+/NM; n=18). Treatments were administered over a 70-d period between May and July (d 147±1 to 217±1 of gestation). A commercially available feed was mixed with or without melatonin [100 μg/kg body weight (BW)] and hand-fed daily.
Cows were weighed every fourteen (14) days relative to the start of the 70-d treatment period (FIG. 16-17): i.e., at d 0, 14, 28, 42, 56, and 70. […]
After the treatment period, cattle were maintained together as a single group on pastures that were free from E+ fescue. Body weights were analyzed using the MIXED procedure of SAS specific for repeated measures with treatment, time, and the interaction as fixed effects and replicate as random. Arterial hemodynamics and prolactin measures were analyzed using the MIXED procedure of SAS with treatment as a fixed effect and replicate as a random effect. […]

[2] = test system: offspring of dams that consumed endophyte-infected (E+) tall fescue seed; assay: Example 1: body composition (carcass) ultrasonography of calves at weaning; format: in vivo, cattle
Source text: (§2) After the training period, the heifers started a 70-day feeding trial (FIG. 2) to evaluate the influence of toxic fescue and melatonin on the developing fetus. To mimic the natural peak of ergot alkaloids in Kentucky 31 fescue, toxic fescue seed was fed with or without melatonin during the 70-day period between May and July. The feed trial period diet consisted of an ad libitum Bermuda grass hay and one of four (4) feed rations. The trial utilized a 2×2 factorial treatment arrangement (E− without melatonin, E−/NM; E− with melatonin, E−/M; E+ without melatonin, E+/NM; or E+ with melatonin, E+/M; melatonin dose: 100 μg/kg of BW) for a 70-d period between May and July starting at 160±13 days of gestation to mimic ergot alkaloid concentrations (ergot alkaloid dose: 13 μg/kg of BW) in a grazing scenario (FIG. 2). Each of the four feed ration treatments was represented in each of the two pens/groups of cattle (FIG. 1). All diets contained corn gluten and molasses and were fed using SmartFeed Pro (C-Lock Inc.) controlled feeding units between 0900 and 1400 h daily. Cattle were removed from dietary treatments 39±19 days before calving. Two replicates were housed separately in the open-air barn (FIG. 1), each with a 1.2-ha paddock. Before and following the 70-d treatment period, all cattle were maintained as a single group free from toxic fescue.
(§3) Powdered melatonin (Cayman Chemical Company) was mixed into 100% ethanol and mixed with feed (fescue seed, corn gluten, and molasses) in a concrete mixer until the feed was dry (ethanol evaporates, and melatonin remains). Melatonin was dosed at about 100 μg/kg of body weight or about 50 mg/head/day for all groups. Ad libitum Bermuda grass hay was offered in an adjacent pasture area to encourage animals to leave the barn after consuming the feed ration during both the training and the feed trial period. After completion of the feed trial, heifers were maintained on fescue-free pastures at the Physiology Farm and supplemented as needed through calving and until their calves were weaned.
Calves were weaned at 226±19 d of age. Gestation length, calf birth weight, 205-day adjusted weaning weight (205-d WW), carcass ultrasonography measures (ribeye area, REA: REA/CWT), percent intramuscular fat (IMF), rib fat thickness (UFAT), rump fat thickness (URUMP), post-weaning weights (recorded every 28 days between weaning and 84 days post-weaning), and post-weaning average daily gain (ADG) (between weaning and 84 days post-weaning) were evaluated in offspring (n=44) (FIGS. 6-13). Post-weaning calf weights were analyzed using the MIXED procedure of SAS specific for repeated measures with treatment and time as fixed effects and replicate as random. All other variables were analyzed using the MIXED procedure of SAS with treatment as a fixed effect and replicate as random with gestation length as a covariate for birth weight. Table 1 summarizes the gestation length and body weights of calves born to primiparous dams that consumed E- or E+ fescue seed with (M) or without melatonin (NM) supplementation during mid-late gestation. Data in Tables 1 and 2 are presented as LS MEANS±SEM.

[3] = test system: beef cows that grazed toxic, endophyte-infected tall fescue (E+) during gestation; assay: Example 3: estimated daily milk volume and weight from four-hour milk yields; format: in vivo, cattle; settings: d 56, P<0.03
Source text: The same artificially inseminated cows were used in Example 3 that were used Example 2. As outlined above in Example 2, forty-nine (n=49) multiparous crossbred beef cows were artificially inseminated with sex-sorted semen (Y chromosome-bearing sperm) from a single Angus sire and maintained on pastures free from E+ fescue prior to the start of the treatment period. Pregnant cows were stratified into three treatment groups based on body weight, with two replications per treatment: non-toxic, novel endophyte-infected (NE+) tall fescue without melatonin supplementation (NE+/NM; n=15), E+ fescue with melatonin supplementation (E+/M; n=16), and E+ fescue without melatonin supplementation (E+/NM; n=18). The treatment period was over 70 d between May and July (d 147±1 to 217-1 of gestation). […]
After birth, calves were castrated within 48-72 hours. […] Protein, lactose, and triglycerides were evaluated in milk samples collected on d 28 and d 56.
(§4) Dam body weight (FIG. 32) and calf body weight (FIG. 34) were analyzed, using the MIXED procedure of SAS specific for repeated measures with treatment and time as fixed effects and replicate as a random effect. Dam prolactin, calf birth weight (FIG. 33), milk volume (FIGS. 35 and 37), and milk weight (FIGS. 36 and 38) were analyzed using the MIXED procedure of SAS with treatment as a fixed effect and replicate as a random effect.

[4] = test system: pregnant heifers consuming endophyte-infected (E+) tall fescue seed and their offspring; assay: Example 1: gestation length and body weights of calves born to dams fed tall fescue seed with or without melatonin; format: in vivo, cattle
Source text: Fifty-seven (n=57) pregnant heifers artificially inseminated with sex-sorted semen (X chromosome-bearing sperm) from a single Angus sire were maintained at the Savoy Unit at the University of Arkansas on Bermuda grass pastures and supplemented as needed during the first 4-5 months of gestation. After that time, pregnant heifers were housed in a barn at the Savoy Unit (FIG. 1) having a controlled feeding system (SmartFeed Pro, C-Lock, Inc.). The controlled feeding system used radio frequency identification to control feed mixtures and intake for heifers.
as §2, §3
Calf body weight was recorded at birth, and calves were tagged for identification purposes. Blood samples were collected from calves at 12±2 days of age via jugular venipuncture (four 10 mL purple top tubes and one 4 mL purple top tube). At weaning, body weight was recorded, and blood samples were collected via jugular venipuncture (four 10 mL purple top tubes and one 4 mL purple top tube). Vaccinations were administered to calves according to normal procedures at the Savoy Unit. Heifers and calves were maintained according to standard procedures at the Savoy Unit and the Physiology Farm.
Calves were weaned at 226±19 d of age. Gestation length, calf birth weight, 205-day adjusted weaning weight (205-d WW), carcass ultrasonography measures (ribeye area, REA: REA/CWT), percent intramuscular fat (IMF), rib fat thickness (UFAT), rump fat thickness (URUMP), post-weaning weights (recorded every 28 days between weaning and 84 days post-weaning), and post-weaning average daily gain (ADG) (between weaning and 84 days post-weaning) were evaluated in offspring (n=44) (FIGS. 6-13). Post-weaning calf weights were analyzed using the MIXED procedure of SAS specific for repeated measures with treatment and time as fixed effects and replicate as random. […]

[5] = test system: steer calves of pregnant beef cattle grazing toxic, endophyte-infected tall fescue (E+); assay: Example 3: body weight of steer calves born to dams grazing E+ fescue with melatonin supplementation; format: in vivo; settings: for Calf weight: raw group average
Source text: The same artificially inseminated cows were used in Example 3 that were used Example 2. As outlined above in Example 2, forty-nine (n=49) multiparous crossbred beef cows were artificially inseminated with sex-sorted semen (Y chromosome-bearing sperm) from a single Angus sire and maintained on pastures free from E+ fescue prior to the start of the treatment period. Pregnant cows were stratified into three treatment groups based on body weight, with two replications per treatment: non-toxic, novel endophyte-infected (NE+) tall fescue without melatonin supplementation (NE+/NM; n=15), E+ fescue with melatonin supplementation (E+/M; n=16), and E+ fescue without melatonin supplementation (E+/NM; n=18). The treatment period was over 70 d between May and July (d 147±1 to 217-1 of gestation). A commercially available feed was mixed with melatonin (100 μg/kg BW) or without melatonin and hand-fed to each cow daily. At the conclusion of the treatment period (56±18 d before parturition), cattle were moved to a single group and maintained on pastures free from E+ fescue, where they remained through weaning.
After birth, calves were castrated within 48-72 hours. Dams and steer calves were weighed every 28 days relative to calving (FIG. 31): i.e., at d 0, 28, 56, 84, 112, 140, and 168 (d 0=calving, <24 h). Table 3 depicts calf weight at preweaning, postweaning, and feedlot for NE+/NM, E/+M, and E/+NM (respectively, green, yellow, and red in FIG. 34B). Four-hour milk yields on d 28±3 and d 56±3 were used to estimate daily milk volume and weight. Protein, lactose, and triglycerides were evaluated in milk samples collected on d 28 and d 56.
as §4

[6] = test system: pregnant beef cattle grazing toxic, endophyte-infected (E+) tall fescue; assay: Example 2: color Doppler ultrasound of uterine and coccygeal artery hemodynamics; format: in vivo
Source text: as §1
Cows were weighed every fourteen (14) days relative to the start of the 70-d treatment period (FIG. 16-17): i.e., at d 0, 14, 28, 42, 56, and 70. Measurements of plasma prolactin were obtained on d 70 of the treatment period by radioimmunoassay (FIG. 18). Color Doppler ultrasound of the uterine and coccygeal artery was conducted at d 68±1 of the treatment period. Cardiac cycle waveforms from three independent ultrasound scans were used to determine the following uterine artery measures (FIGS. 19-25) and coccygeal artery measures (FIGS. 26-30): diameter (cm), pulsatility index (PI), resistance index (RI), blood flow (BF; mL/min; equal to MnV*vessel area*60 s), and blood flow as a proportion of BW (BF/BW).
After the treatment period, cattle were maintained together as a single group on pastures that were free from E+ fescue. Body weights were analyzed using the MIXED procedure of SAS specific for repeated measures with treatment, time, and the interaction as fixed effects and replicate as random. Arterial hemodynamics and prolactin measures were analyzed using the MIXED procedure of SAS with treatment as a fixed effect and replicate as a random effect. Ultrasonography day and order were tested as covariates and removed from the model […].

[7] = calves at weaning, melatonin main-effect mean, LS mean
[8] = calves, melatonin main-effect mean, dams 100 μg/kg BW for 70 d, LS mean
[9] = cows on E+ fescue with melatonin, d 68±1 of treatment

With COc1ccc2[nH]cc(CCNC(C)=O)c2c1 [melatonin] the “Prolactin (plasma)” value [1] was 86.9 ± 14.9 ng/mL, the “IMF (percent intramuscular fat)” value [2, 7] was 2.60% and the “REA (ribeye area)” value [2, 7] was 5.87 in.^2. The “UFAT (rib fat thickness)” value [2, 7] was 0.08 in, the “URUMP (rump fat thickness)” value [2, 7] was 0.08 in and the “ribeye area, toxic fescue seed with melatonin compared to toxic fescue seed without melatonin” value ([2]; fescue × melatonin interaction) was “increased”. The “estimated daily milk volume relative to NE+/NM dams” value [3] was “decreased”, the “estimated daily milk weight relative to NE+/NM dams” value [3] was “decreased” and the “calf weight at weaning recovered by feeding melatonin” value ([4]; Example 1, first-calf heifers, statistically adjusted means) was “approximately 53 lbs”. The “share of the loss in calf weight at weaning recovered by feeding melatonin” value ([4]; Example 1, loss approximately 68 lbs., statistically adjusted means) was “over 75%”, the “birth weight of offspring, dams receiving melatonin relative to those without” value ([4]; P=0.02 as printed in text) was “increased” and the “205-d WW (205-day adjusted weaning weight)” value [4, 8] was 176.95 kg. For the same molecule, the “Birth Weight” value [4, 8] was 25.90 kg, the “205-d weaning weight, toxic fescue seed with melatonin compared to toxic fescue seed without melatonin” value ([4]; fescue × melatonin interaction) was “increased” and the “post-weaning calf weight, toxic fescue seed with melatonin compared to toxic fescue seed without melatonin” value ([4]; fescue × melatonin interaction) was “increased”. For the same molecule, the “Gestation Length” value ([4]; melatonin main-effect mean (E- and E+ diets pooled), 100 μg/kg BW in feed for 70 d mid-late gestation, LS mean) was 272.00 days, the Calf weight ([5]; Birth) was 74.43 lbs and the Calf weight ([5]; D 28) was 148.07 lbs. It also gave a Calf weight ([5]; D 56) of 212.07 lbs, a Calf weight ([5]; D 84) of 278.46 lbs and a Calf weight ([5]; D 112) of 347.15 lbs. It also gave a Calf weight ([5]; D 140) of 409.15 lbs, a Calf weight ([5]; D 168) of 476.77 lbs and a Calf weight ([5]; D 196) of 535.31 lbs. For the same molecule, the Calf weight ([5]; D +28 Post-Weaning) was 641.23 lbs, the Calf weight ([5]; D +56 Post-Weaning) was 703.69 lbs and the Calf weight ([5]; D +84 Post-Weaning) was 766.62 lbs. For the same molecule, the Calf weight ([5]; D +112 Post-Weaning) was 852.92 lbs, the Calf weight ([5]; Feedlot - October 29) was 1003.33 lbs and the Calf weight ([5]; Weaning) was 622.31 lbs. For the same molecule, the “share of the loss in calf weight recovered by feeding melatonin” value ([5]; second study, 28 days prior to weaning, loss 28 lbs., statistically adjusted means) was “over 65%”, the “calf weight recovered by feeding melatonin” value ([5]; second study, 28 days prior to weaning, multiparous cows, statistically adjusted means) was “approximately 19 lbs” and the “Coccygeal artery PI (pulsatility index)” value [6, 9] was 0.86±0.1. The “Coccygeal artery RI (resistance index)” value [6, 9] was 0.53±0.02 and the “effects on uterine and coccygeal artery hemodynamics” value ([6]; pregnant multiparous crossbred beef cows grazing endophyte-infected tall fescue) was “limited effects”.
